Series [1] concerns classical complement pathway. The experiment in a line: In vitro haemolysis assay (inhibition of classical complement pathway). It counts as cell-based, human. The settings on record: human serum, sensitized sheep red blood cells. Put shortly: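 Compound dilutions preincubated 15 min at room temperature with diluted human serum (titrated per batch for 70-90% maximal haemolysis), then antibody-sensitized sheep RBC (10^7/well) added for 30 min at 37 °C in Tris/casein buffer, pH 7.4. Stopped with EDTA; haemolysis read at 405 nm; IC50 by 4PL fit.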

Series [2] is described as follows: Solubility test at 10 mg/mL (visual inspection and light scattering). The settings on record: for Solubility, Condition 1: Acetate pH 4; for Solubility, Condition 2: Acetate pH 5; for Solubility, Condition 3: Phosphate pH 6; for Solubility, Condition 4: Phosphate pH 7; for Solubility, Condition 5: Phosphate pH 7.5. It counts as physicochemical.
[3] abbreviates: Table 3, given as upper bounds, read-out: IC50, inhibition of hemolysis.

Data on six molecules can be found in patent US11965039B2, “Compstatin analogues and their medical uses” (priority 2018, dated 2024).

Where two headings read alike, the source gives them in different places. Positions of bridges follow the written chain, without caps; N, C: chain ends. Non-standard residues stand in square brackets, D forms with d. Residues, ends and D or L forms follow the SMILES beside them. Trp(1-Me) = Cn1cc(C[C@H](N)C(=O)O)c2ccccc21; Sar = CNCC(=O)O

As a reminder, the IC50 is the point on the concentration scale where inhibition reaches its midpoint. For the molecule `CC[C@H](C)[C@@H]1NC(=O)[C@@H](NC(=O)[C@@H](NC(=O)[C@H](CCC(=O)O)NC(=O)[C@H](CO)NC(=O)[C@H](CCC(=O)O)NC(C)=O)[C@@H](C)CC)CSSC[C@@H](C(=O)N[C@@H](CCC(=O)O)C(=O)NCC(=O)N[C@@H](CCC(=O)O)C(N)=O)NC(=O)[C@H](CCCNC(=N)N)NC(=O)[C@H](Cc2c[nH]cn2)NC(=O)[C@H](CCC(=O)O)NC(=O)CNC(=O)[C@H](Cc2c[nH]c3ccccc23)NC(=O)[C@H](CC(=O)O)NC(=O)[C@H](CCC(N)=O)NC(=O)[C@H](Cc2c[nH]c3ccccc23)NC1=O` [Compound 36] (Ac-ESEICIWQDWGEHRCEGE-NH2; disulfide 5-15), in series [1] (setting [3]), the IC50 was less than 0.25 µM. Further, in series [2], the “Solubility, Condition 1” value was “− (“−” denotes lack of solubility at the given condition, as UV absorbance at 340 nm exceeds 0.1 AU and/or it is visibly turbid or contains particles)”; the “Solubility, Condition 2” value is reported as “− (“−” denotes lack of solubility at the given condition, as UV absorbance at 340 nm exceeds 0.1 AU and/or it is visibly turbid or contains particles)”; the “Solubility, Condition 3” value is “− (“−” denotes lack of solubility at the given condition, as UV absorbance at 340 nm exceeds 0.1 AU and/or it is visibly turbid or contains particles)”; the “Solubility, Condition 4” value was “+ (“+” denotes solubility at the given condition, as determined by UV absorbance being less than 0.1 AU at 340 nm and the sample being clear when manually inspected)”. Also, the “Solubility, Condition 5” value in series [2] was “+ (“+” denotes solubility at the given condition, as determined by UV absorbance being less than 0.1 AU at 340 nm and the sample being clear when manually inspected)”.

As for `CC[C@H](C)[C@H](NC(C)=O)C(=O)N[C@H]1CSSC[C@@H](C(=O)N[C@H](C(=O)N[C@@H](CCC(=O)O)C(=O)N[C@@H](C)C(N)=O)[C@@H](C)O)NC(=O)[C@H](CCCNC(=N)N)NC(=O)[C@H](Cc2c[nH]cn2)NC(=O)[C@H](CCC(=O)O)NC(=O)CNC(=O)[C@H](Cc2c[nH]c3ccccc23)NC(=O)[C@H](CC(=O)O)NC(=O)[C@H](CCC(N)=O)NC(=O)[C@H](Cc2c[nH]c3ccccc23)NC(=O)[C@H]([C@@H](C)CC)NC1=O` [Compound 25] (Ac-ICIWQDWGEHRCTEA-NH2; disulfide 2-12), the IC50 in series [1] (setting [3]) was less than 0.1 µM. In series [2], the “Solubility, Condition 1” value was “+ (“+” denotes solubility at the given condition, as determined by UV absorbance being less than 0.1 AU at 340 nm and the sample being clear when manually inspected)”; the “Solubility, Condition 2” value was “− (“−” denotes lack of solubility at the given condition, as UV absorbance at 340 nm exceeds 0.1 AU and/or it is visibly turbid or contains particles)”; the “Solubility, Condition 3” value is “− (“−” denotes lack of solubility at the given condition, as UV absorbance at 340 nm exceeds 0.1 AU and/or it is visibly turbid or contains particles)”; the “Solubility, Condition 4” value was “+ (“+” denotes solubility at the given condition, as determined by UV absorbance being less than 0.1 AU at 340 nm and the sample being clear when manually inspected)”. For the same molecule, in series [2], the “Solubility, Condition 5” value is “+ (“+” denotes solubility at the given condition, as determined by UV absorbance being less than 0.1 AU at 340 nm and the sample being clear when manually inspected)”.

Consider `CC[C@H](C)[C@@H]1NC(=O)[C@@H](NC(=O)[C@@H](NC(=O)[C@H](CCC(=O)O)NC(=O)[C@H](CO)NC(C)=O)[C@@H](C)CC)CSSC[C@@H](C(=O)N[C@H](C(=O)N[C@@H](CCC(=O)O)C(=O)N[C@@H](C)C(N)=O)[C@@H](C)O)NC(=O)[C@H](CCCNC(=N)N)NC(=O)[C@H](Cc2c[nH]cn2)NC(=O)[C@H](CCC(=O)O)NC(=O)CNC(=O)[C@H](Cc2c[nH]c3ccccc23)NC(=O)[C@H](CC(=O)O)NC(=O)[C@H](CCC(N)=O)NC(=O)[C@H](Cc2c[nH]c3ccccc23)NC1=O` [Compound 32] (Ac-SEICIWQDWGEHRCTEA-NH2; disulfide 4-14), for which the IC50 in series [1] (setting [3]) is less than 0.1 µM. Further, in series [2], the “Solubility, Condition 1” value is on record as “− (“−” denotes lack of solubility at the given condition, as UV absorbance at 340 nm exceeds 0.1 AU and/or it is visibly turbid or contains particles)”; the “Solubility, Condition 2” value was “− (“−” denotes lack of solubility at the given condition, as UV absorbance at 340 nm exceeds 0.1 AU and/or it is visibly turbid or contains particles)”; the “Solubility, Condition 3” value is “− (“−” denotes lack of solubility at the given condition, as UV absorbance at 340 nm exceeds 0.1 AU and/or it is visibly turbid or contains particles)”; the “Solubility, Condition 4” value is “+ (“+” denotes solubility at the given condition, as determined by UV absorbance being less than 0.1 AU at 340 nm and the sample being clear when manually inspected)”. Besides, the “Solubility, Condition 5” value in series [2] was “+ (“+” denotes solubility at the given condition, as determined by UV absorbance being less than 0.1 AU at 340 nm and the sample being clear when manually inspected)”.

As for `CC[C@H](C)[C@@H]1NC(=O)[C@@H](NC(=O)[C@H](Cc2ccccc2)NC(C)=O)CSSC[C@@H](C(=O)N[C@H](C(=O)NCC(=O)N[C@@H](C)C(=O)N[C@@H](CCC(=O)O)C(=O)N[C@@H](CO)C(N)=O)[C@@H](C)O)NC(=O)[C@H](CCCNC(=N)N)NC(=O)[C@H](Cc2c[nH]cn2)NC(=O)[C@H](CCC(=O)O)NC(=O)CN(C)C(=O)[C@H](Cc2c[nH]c3ccccc23)NC(=O)[C@H](CC(=O)O)NC(=O)[C@H](CCC(N)=O)NC(=O)[C@H](Cc2cn(C)c3ccccc23)NC1=O` [Compound 72, Ac-FC(1)I[1-Me-Trp]QDW[Sar]EHRC(1)TGAES-NH2] (Ac-FCI[Trp(1-Me)]QDW[Sar]EHRCTGAES-NH2; disulfide 2-12), in series [1] (setting [3]), the IC50 was less than 0.1 µM. In addition, in series [2], the “Solubility, Condition 1” value was “− (“−” denotes lack of solubility at the given condition, as UV absorbance at 340 nm exceeds 0.1 AU and/or it is visibly turbid or contains particles)”; the “Solubility, Condition 2” value is recorded as “− (“−” denotes lack of solubility at the given condition, as UV absorbance at 340 nm exceeds 0.1 AU and/or it is visibly turbid or contains particles)”; the “Solubility, Condition 3” value was “+ (“+” denotes solubility at the given condition, as determined by UV absorbance being less than 0.1 AU at 340 nm and the sample being clear when manually inspected)”; the “Solubility, Condition 4” value was “+ (“+” denotes solubility at the given condition, as determined by UV absorbance being less than 0.1 AU at 340 nm and the sample being clear when manually inspected)”. In addition, in series [2], the “Solubility, Condition 5” value was “+ (“+” denotes solubility at the given condition, as determined by UV absorbance being less than 0.1 AU at 340 nm and the sample being clear when manually inspected)”.

For the molecule `CC[C@H](C)[C@@H]1NC(=O)[C@@H](NC(=O)[C@H](Cc2ccccc2)NC(=O)[C@H](CCC(=O)O)NC(=O)[C@H](CO)NC(C)=O)CSSC[C@@H](C(=O)N(C)CC(=O)N[C@@H](CCC(=O)O)C(=O)N[C@@H](C)C(N)=O)NC(=O)[C@H](CCCNC(=N)N)NC(=O)[C@H](Cc2c[nH]cn2)NC(=O)[C@H](CCC(=O)O)NC(=O)CN(C)C(=O)[C@H](Cc2c[nH]c3ccccc23)NC(=O)[C@H](CC(=O)O)NC(=O)[C@H](CCC(N)=O)NC(=O)[C@H](Cc2cn(C)c3ccccc23)NC1=O` [Compound 76, Ac-SEFC(1)I[1-Me-Trp]QDW[Sar]EHRC(1)[Sar]EA-NH2] (Ac-SEFCI[Trp(1-Me)]QDW[Sar]EHRC[Sar]EA-NH2; disulfide 4-14), the IC50 in series [1] (setting [3]) is less than 0.1 µM. For the same molecule, in series [2], the “Solubility, Condition 1” value was “− (“−” denotes lack of solubility at the given condition, as UV absorbance at 340 nm exceeds 0.1 AU and/or it is visibly turbid or contains particles)”; the “Solubility, Condition 2” value is given as “− (“−” denotes lack of solubility at the given condition, as UV absorbance at 340 nm exceeds 0.1 AU and/or it is visibly turbid or contains particles)”; the “Solubility, Condition 3” value was “+ (“+” denotes solubility at the given condition, as determined by UV absorbance being less than 0.1 AU at 340 nm and the sample being clear when manually inspected)”; the “Solubility, Condition 4” value is “+ (“+” denotes solubility at the given condition, as determined by UV absorbance being less than 0.1 AU at 340 nm and the sample being clear when manually inspected)”. The “Solubility, Condition 5” value in series [2] was “+ (“+” denotes solubility at the given condition, as determined by UV absorbance being less than 0.1 AU at 340 nm and the sample being clear when manually inspected)”.

As for `CC[C@H](C)[C@H](NC(=O)[C@H](C)NC(=O)[C@H](CO)NC(=O)CNC(=O)[C@H](CCC(=O)O)NC(C)=O)C(=O)N[C@H]1CSSC[C@@H](C(=O)N(C)CC(=O)N[C@@H](CCC(=O)O)C(N)=O)NC(=O)[C@H](CCCNC(=N)N)NC(=O)[C@H](Cc2c[nH]cn2)NC(=O)[C@H](CCC(=O)O)NC(=O)CNC(=O)[C@H](Cc2c[nH]c3ccccc23)NC(=O)[C@H](CC(=O)O)NC(=O)[C@H](CCC(N)=O)NC(=O)[C@H](Cc2c[nH]c3ccccc23)NC(=O)[C@H]([C@@H](C)CC)NC1=O` [Compound 28] (Ac-EGSAICIWQDWGEHRC[Sar]E-NH2; disulfide 6-16), the IC50 in series [1] (setting [3]) is less than 0.1 µM. The IC50 in series [1] (Table 4, valine 3 vs isoleucine 3 pairs, read-out: CP hemolysis IC50) amounted to 0.088 µM. Further, in series [2], the “Solubility, Condition 1” value was “+ (“+” denotes solubility at the given condition, as determined by UV absorbance being less than 0.1 AU at 340 nm and the sample being clear when manually inspected)”; the “Solubility, Condition 2” value is “+ (“+” denotes solubility at the given condition, as determined by UV absorbance being less than 0.1 AU at 340 nm and the sample being clear when manually inspected)”; the “Solubility, Condition 3” value was “+ (“+” denotes solubility at the given condition, as determined by UV absorbance being less than 0.1 AU at 340 nm and the sample being clear when manually inspected)”; the “Solubility, Condition 4” value is “+ (“+” denotes solubility at the given condition, as determined by UV absorbance being less than 0.1 AU at 340 nm and the sample being clear when manually inspected)”. The “Solubility, Condition 5” value in series [2] was “+ (“+” denotes solubility at the given condition, as determined by UV absorbance being less than 0.1 AU at 340 nm and the sample being clear when manually inspected)”.
